{"source": "patent US8986701B2", "about": "“Enzyme prodrug cancer therapy selectively targeted to tumor vasculature and methods of production and use thereof” (The Board of Regents of the University of Oklahoma, priority 2003, dated 2015)", "key": {"[1]": {"experiment": "L-methioninase enzyme activity with L-methionine as substrate", "format": "biochemical", "protocol": "Protein Content and Enzymatic Activity Determination: The Bradford assay from Bio-Rad (Hercules, Calif.) was used for all protein determinations throughout the purification using bovine serum albumin (BSA) as the standard. Samples were analyzed by denaturing gel electrophoresis using the SDS-PAGE method with Coomassie blue staining (Laemmli, 1970)."}, "HAAE-1 endothelial cells [2]": {"tested_on": "HAAE-1 endothelial cells", "experiment": "Binding stability assay, endothelial cells", "format": "cell-based, human", "protocol": "(§1) Binding Stability Assay: To assess how long the FP remains bound to the surface of the endothelial cells, a modified binding assay was used. Cells on 24-well plates were first incubated for 2 hours at 37° C. in a saturating concentration of biotinylated FP (50 nM) in complete growth medium with 2 mM Ca^2+. Then, the cells were fixed either at day 0, 1, 2 or 3 with 0.25% glutaraldehyde in binding buffer. Excess aldehyde groups were quenched by incubation in a 50 mM NH4Cl in binding buffer. The binding of FP was then quantitated using the same procedure used in the FP binding assay (see above).\n(§2) Binding Stability: To assess how long the FP remains bound to the surface of the endothelial cells, a modified binding assay was used. Cells on 24-well plates were first incubated for 2 hours at 37° C. in a saturating concentration of biotinylated FP (50 nM) in complete growth medium with 2 mM Ca^2+. […] The binding of FP was then quantified using the same procedure used in the equilibrium FP binding assay. […] For each cell line, the slope by linear regression of the absorbance/RFU versus time data was obtained, with results as follows: 3.07×10^−5 per day for the endothelial cells (HAAE-1), 4.63×10^−5 per day for the MCF-7 cells, and 5.38×10^−5 per day for the MDA-MB-231 cells. Thus, the rate of change of absorbance/RFU was the lowest for the endothelial cells."}, "[3]": {"tested_on": "PS exposed on MCF-7 breast cancer cells", "experiment": "Fusion protein equilibrium binding assay, MCF-7", "set-up": "species or system human", "conditions": "specific binding, biotin-labeled FP, no H2O2, read-out: dissociation constant (Kd)", "protocol": "(§3) Fusion Protein Binding Assay: Endothelial cells were grown to 70-80% confluence in T-75 flasks. Cells were transferred to 24-well culture plates (5×10^4 cells/well) and grown to 80-85% confluence. Cells were fixed to the plate using 0.25% glutaraldehyde in binding buffer (PBS with 2 mM Ca^2+). Excess aldehyde groups were quenched using 50 mM NH4Cl in binding buffer. Varying concentrations of biotinylated FP were diluted in binding buffer containing 0.5% BSA and incubated at 37° C. for 2 hours. After washing with binding buffer with 0.5% BSA, streptavidin-HRP was added at 2 μg/ml and incubated at room temperature for 1 hour. Following washing with binding buffer, HRP was measured by adding the chromogenic substrate O-phenylenediamine (0.4 mg/ml) and hydrogen peroxide (0.012%) in phosphate-citrate buffer. After 30 minutes at room temperature in the dark, the solution was transferred to a transparent 96-well plate, and the absorbance was read at 450 nm on a microtiter plate reader. […] To determine non-specific binding, the same procedure was performed with no Ca^2+ and 5 mM EDTA in the binding buffer. […]\n(§4) Binding of Fusion Protein: The ability of the Meth-AnnV FP to bind to human endothelial cells and breast cancer cells with PS exposed on the cell surface was evaluated by equilibrium binding experiments in which increasing concentrations of biotin-labeled FP were used. […]"}, "[4]": {"tested_on": "MDA-MB-231 breast cancer cells", "experiment": "In vitro enzyme prodrug cytotoxicity (Alamar Blue), MDA-MB-231", "format": "cell-based, human", "conditions": "500 μM L-methionine", "protocol": "(§5) In Vitro Enyzme Prodrug Cytotoxicty to Cells: The experiment lasted 3 days, using the same cells for each of the days (day 0, 1, 2, and 3). Cells were grown and plated in 24-well plates with respective growth media using the same procedure as for the FP binding assay (see above). […] On day 0, a saturating concentration of FP was diluted in medium was added and incubated for 2 hours at 37° C. The plates were washed, and medium containing SeMet varying from 0 to 500 μM was added. The Alamar Blue assay was performed on all wells on day 0. […] The solution was transferred to an opaque 96-well plate, and the fluorescence was read at 590 nm using excitation at 530 nm. The blank consisted of wells containing only medium (no cells). After the fluorescence reading, the plates were washed, replaced with fresh medium, and then placed in incubator. The readings were taken every 24 hours for the duration of the experiment. […] The ability of the enzyme prodrug system to eliminate human endothelial cells and breast cancer cells was evaluated using cells grown in vitro and plated on 24-well plates. […] Each of the cell lines in question metabolized the Alamar Blue to produce a fluorescence that was measured to quantify total cell viability. For each day, the fluorescence data from the Alamar Blue assay was expressed as a percentage of the fluorescence for the cells with no FP and 0 μM SeMet (control). […]"}, "[5]": {"tested_on": "PS exposed on MDA-MB-231 breast cancer cells", "experiment": "Fusion protein equilibrium binding assay, MDA-MB-231", "set-up": "species or system human", "conditions": "specific binding, biotin-labeled FP, no H2O2, read-out: dissociation constant (Kd)", "protocol": "as §3, §4"}, "MCF-7 cells": {"tested_on": "MCF-7 cells", "experiment": "Binding stability assay, MCF-7", "format": "cell-based, human", "protocol": "as §1, §2"}, "[6]": {"experiment": "Storage stability of L-methioninase activity in lyophilized form", "format": "physicochemical", "conditions": "lyophilized form at −80° C."}, "MDA-MB-231 cells": {"tested_on": "MDA-MB-231 cells", "experiment": "Binding stability assay, MDA-MB-231", "format": "cell-based, human", "protocol": "as §1, §2"}, "[7]": {"tested_on": "PS exposed on HAAE-1 aorta endothelial cells", "experiment": "Fusion protein equilibrium binding assay, endothelial cells", "set-up": "species or system human", "conditions": "specific binding (total minus non-specific without Ca2+), biotin-labeled FP, no H2O2, read-out: dissociation constant (Kd)", "protocol": "as §3, §4"}, "[8]": {"conditions": "L-methioninase from P. putida; Esaki and Soda 1987; cited from earlier work"}, "[9]": {"tested_on": "human brain tumor xenografts", "conditions": "cited from earlier work"}, "[10]": {"tested_on": "MCF-7 breast cancer cells", "experiment": "In vitro enzyme prodrug cytotoxicity (Alamar Blue), MCF-7", "format": "cell-based, human", "protocol": "as §5"}, "HAAE-1 endothelial cells [11]": {"tested_on": "HAAE-1 endothelial cells", "experiment": "In vitro enzyme prodrug cytotoxicity (Alamar Blue), endothelial cells", "format": "cell-based, human", "conditions": "with saturating FP; 10 and 100 μM SeMet; days 2 and 3; 500 μM L-methionine", "protocol": "as §5"}, "endothelial cells": {"tested_on": "endothelial cells", "conditions": "van Heerde et al., 1994a and b; read-out: Kd, literature values of annexin V binding alone to endothelial cells; cited from earlier work"}, "[12]": {"conditions": "50 nM biotinylated FP, days 0-3, 500 μM L-methionine"}, "[13]": {"conditions": "period of the experiment 3 days"}}}
{"compound": "FP: Fusion protein of Pseudomonas putida L-methioninase linked by a flexible linker to human annexin V, SEQ ID NO:2", "values": [{"measurement": "methioninase specific activity", "setting": "[1]; lyophilized FP", "result": "1.0 U/mg of protein"}, {"measurement": "Specific activity", "setting": "[1]; purification step: After lyophilized", "result": 1.04, "unit": "U/mg"}, {"measurement": "slope by linear regression of absorbance/RFU versus time", "setting": "HAAE-1 endothelial cells [2]; [12]", "result": "3.07×10^−5 per day"}, {"measurement": "duration FP stays bound to the cells", "setting": "HAAE-1 endothelial cells [2]; [13]", "result": "at least 3 days"}, {"measurement": "Kd", "setting": "[3]", "result": "1.9 ± 1.2", "unit": "nM"}, {"measurement": "cell viability when FP added, no SeMet present", "setting": "[4]; no SeMet", "result": "significant decrease in cell viability"}, {"measurement": "Kd", "setting": "[5]", "result": "2.2 ± 1.2", "unit": "nM"}, {"measurement": "slope by linear regression of absorbance/RFU versus time", "setting": "MCF-7 cells; 50 nM biotinylated FP, days 0-3, 2000 μM L-methionine", "result": "4.63×10^−5 per day"}, {"measurement": "duration FP stays bound to the cells", "setting": "MCF-7 cells; [13]", "result": "at least 3 days"}, {"measurement": "L-methioninase activity on storage", "setting": "[6]", "result": "remained relatively constant"}, {"measurement": "slope by linear regression of absorbance/RFU versus time", "setting": "MDA-MB-231 cells; [12]", "result": "5.38×10^−5 per day"}, {"measurement": "duration FP stays bound to the cells", "setting": "MDA-MB-231 cells; [13]", "result": "at least 3 days"}, {"measurement": "Kd", "setting": "[7]", "result": "1.7 ± 0.6", "unit": "nM"}]}
{"compound": "L-methionine-α-deamino-γ-mercaptomethane-lyase [L-methioninase]", "values": [{"measurement": "relative reactivity for DL-selenomethionine substrate versus L-methionine substrate", "setting": "[8]", "result": 2.8, "unit": "times"}, {"measurement": "tumor regression, share of animals", "setting": "[9]; after a 10-day period, same combined treatment", "result": "one-third"}, {"measurement": "tumor stasis, share of treated animals", "setting": "[9]; within four days, 44 mg/kg per day i.p. with homocystine and diet restricted in methionine, homocysteine, choline", "result": 100, "unit": "%"}]}
{"compound": "C[Se]CC[C@H](N)C(=O)O", "note": "[SeMet, selenomethionine]", "values": [{"measurement": "cell viability vs control, SeMet by itself", "setting": "[10]; no FP, 500 μM SeMet, day 3, p<0.05", "result": "significantly lower"}, {"measurement": "cell killing (cell viability, Alamar Blue) vs same SeMet without FP", "setting": "[10]; with saturating FP, day 2 with 500 μM SeMet, day 3 with 100 and 500 μM SeMet, 2000 μM L-methionine", "result": "significant cell killing"}, {"measurement": "cell killing (cell viability, Alamar Blue) vs same SeMet without FP", "setting": "HAAE-1 endothelial cells [11]", "result": "Significant cell killing"}, {"measurement": "cell killing (cell viability, Alamar Blue) vs same SeMet without FP", "setting": "[4]; with saturating FP, 10 and 500 μM SeMet, days 1, 2 and 3", "result": "significant killing"}]}
{"compound": "annexin V: Ca2+-dependent anionic phospholipid binding protein; literature comparator for binding", "values": [{"measurement": "Kd", "setting": "endothelial cells", "result": "2.7 to 15.5", "unit": "nM"}]}
